Activity calls are given as the source filed them.

The term IC50 denotes the concentration at which inhibition is half-maximal. One may read the AC50 as the concentration giving half of the maximal activity seen.

For one test, the target named is T1, NADPH oxidase 1 (Homo sapiens, UniProt Q9Y5S8).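 Further: Cell-based assay with luminescence read-out, IC50 derived from inhibitor dose-response curves; intracellular ROS from endogenous NOX1 in intact HT29 colon cancer cells; potency of inhibitors that lower the ROS luminescence signal.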
T1 sequence (Q9Y5S8 whole entry): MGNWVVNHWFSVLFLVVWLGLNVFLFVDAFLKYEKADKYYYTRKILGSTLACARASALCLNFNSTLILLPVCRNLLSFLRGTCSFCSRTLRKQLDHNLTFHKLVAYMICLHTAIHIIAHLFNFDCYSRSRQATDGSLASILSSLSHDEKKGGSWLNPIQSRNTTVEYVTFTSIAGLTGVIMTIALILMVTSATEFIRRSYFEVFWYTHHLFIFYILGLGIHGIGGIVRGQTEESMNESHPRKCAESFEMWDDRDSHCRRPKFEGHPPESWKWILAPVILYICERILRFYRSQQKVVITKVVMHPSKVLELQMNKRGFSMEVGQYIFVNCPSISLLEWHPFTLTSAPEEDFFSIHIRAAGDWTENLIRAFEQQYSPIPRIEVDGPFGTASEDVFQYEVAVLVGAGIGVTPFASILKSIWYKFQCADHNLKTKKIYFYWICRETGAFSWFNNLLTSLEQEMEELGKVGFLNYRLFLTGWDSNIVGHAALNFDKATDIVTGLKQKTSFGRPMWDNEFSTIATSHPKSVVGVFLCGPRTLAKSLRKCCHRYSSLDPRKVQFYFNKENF
Type of test: functional, cell-based.

The target of test [1] is Induced myeloid leukemia cell differentiation protein Mcl-1 (Homo sapiens, UniProt Q07820). Kind of test: MCL1-BIM BH3 interaction inhibitors, dose response, biochemical, fluorescence polarization, BIM-BH3 peptide, 1536-well (AID 2217). (In general: Fluorescence polarisation rises when a labelled molecule tumbles more slowly, as on binding a larger partner.)
Sequence of Induced myeloid leukemia cell differentiation protein Mcl-1 (Q07820 whole entry): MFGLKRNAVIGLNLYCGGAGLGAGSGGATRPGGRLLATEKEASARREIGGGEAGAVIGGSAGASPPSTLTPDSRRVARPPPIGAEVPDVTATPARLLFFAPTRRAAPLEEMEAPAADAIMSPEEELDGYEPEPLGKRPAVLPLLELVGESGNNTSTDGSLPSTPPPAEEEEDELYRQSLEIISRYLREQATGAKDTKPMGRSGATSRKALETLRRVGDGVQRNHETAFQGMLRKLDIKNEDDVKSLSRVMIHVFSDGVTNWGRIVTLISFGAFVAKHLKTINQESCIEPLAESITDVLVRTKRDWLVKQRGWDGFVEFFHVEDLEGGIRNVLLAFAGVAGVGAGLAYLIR
For another test, the target named is Bcl-2-like protein 1 (Homo sapiens, UniProt Q07817). Kind of test: BCL-XL inhibitors, dose response, selectivity assay for MCL1 inhibitor project, biochemical, fluorescence polarization, 1536-well (AID 2218).
Sequence of Bcl-2-like protein 1 (Q07817 whole entry): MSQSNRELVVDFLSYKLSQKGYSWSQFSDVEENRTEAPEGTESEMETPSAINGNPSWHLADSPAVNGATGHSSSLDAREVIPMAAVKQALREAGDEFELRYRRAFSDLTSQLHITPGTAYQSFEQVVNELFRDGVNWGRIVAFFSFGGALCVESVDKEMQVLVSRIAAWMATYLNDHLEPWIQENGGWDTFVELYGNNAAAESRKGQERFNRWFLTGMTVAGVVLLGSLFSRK
The target of the next test is T2, Caspase-6 (Homo sapiens, UniProt P55212).
T2 sequence (P55212 whole entry): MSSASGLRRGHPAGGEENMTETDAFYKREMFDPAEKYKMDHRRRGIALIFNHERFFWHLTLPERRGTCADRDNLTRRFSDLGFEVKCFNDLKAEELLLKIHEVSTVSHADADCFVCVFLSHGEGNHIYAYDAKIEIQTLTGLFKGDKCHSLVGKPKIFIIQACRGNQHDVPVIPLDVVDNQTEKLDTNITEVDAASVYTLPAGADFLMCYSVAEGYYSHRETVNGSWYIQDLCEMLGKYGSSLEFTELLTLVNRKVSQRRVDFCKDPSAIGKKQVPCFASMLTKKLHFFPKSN
Kind of test: human caspase-6 inhibitors, dose response, biochemical, VEID-R110 fluorescence, cherry-pick (AID 720632).

`O=C(Nc1ccc(NC(=O)c2ccccc2O)cc1)Nc1ccc(OCc2ccccc2)cc1`: the half-maximal inhibitory concentration (IC50) against NADPH oxidase 1 is > 17 µM (not active).
Regarding `C/C(=N\NC(=O)c1cc(O)ccc1O)c1cccc(NC(=O)c2ccc(Cl)cc2)c1`, the IC50 in test [1] was 59.1 µM (not active); against Bcl-2-like protein 1 it was > 109 µM (not active). The AC50 on Caspase-6 was 8.91 µM (active).

The record behind these values is ChEMBL document CHEMBL1201862, “PubChem BioAssay data set” (2004).
